{"source": "patent US9505735B2", "about": "“Compounds for treating infectious diseases” (Whitehead Institute for Biomedical Research, priority 2012, dated 2016)", "key": {"BIP level in K562 cells": {"system": "BIP level in K562 cells", "assay": "BIP immunoblot in mammalian cells", "type": "cell-based, human", "conditions": "20 μM, 28 hour", "protocol": "Immunoblot of lysates prepared from human leukemia cells (K562) using an antibody to BIP after 28 hour exposure to tunicamycin (1 μg ml^−1), gepinacin (20 μM) or solvent vehicle (DMSO, 0.1%). Betaactin was blotted as a loading control."}, "[1]": {"system": "C. albicans Sc5314 cell surface β-glucan", "assay": "β-Glucan staining (microscopy, flow cytometry)", "type": "cell-based", "protocol": "Overnight treatment and staining of C. albicans strain Sc5314 was performed as previously described for caspofungin treatment using YPD media at 30° C. to maintain growth in the yeast form (Wheeler, et al. (2006) PLoS Pathog 2, e35). Antibody to (1-3) β-D-glucan was obtained from Biosupplies (Australia). Cells were propidium iodide (PI) stained to assess viability and only PI-negative cells were analyzed. Microscopy was performed on a Nikon Eclipse microscope with a 100× oil objective."}, "Emp24-GFP": {"system": "Emp24-GFP", "assay": "Emp24-GFP distribution (microscopy)", "type": "cell-based, S. cerevisiae", "conditions": "5 μM, overnight", "protocol": "(A) Anti-fungal susceptibility testing of gepinacin using suppressor strains 20-1 and 20-2. (B) The sequence of EMP24 in S. cerevisiae is shown with the location of mutations found by whole genome sequencing in the suppressor strains 20-1 and 20-2 indicated. The sequence in FIG. 4B corresponds to SEQ ID NO: 1. (C) Micrographs showing the redistribution of Emp24-GFP after overnight incubation with 5 μM gepinacin. Green fluorescence and DIC images are merged in the lower panels. Scale bar; 5 μm.\nTo determine if gepinacin does indeed alter trafficking and change Emp24 distribution yeast in which GFP was fused in frame to the 3′ end of genomic EMP24 were examined."}, "Aspergillus terreus": {"system": "Aspergillus terreus", "assay": "Antifungal susceptibility testing (mold, MIC50/MIC80)", "type": "cell-based", "protocol": "Sensitivity to gepinacin was determined in 96-well, flat bottom microtiter plates using a modification of the NCCLS broth microdilution protocol CLS M27-A3 and RPMI as culture medium. Fungi were inoculated at ˜10^3 cells per ml and incubated for 48 hours at 37° C. after which plates were sealed, shaken and the optical density read at 600 nm (OD600) on a Tecan Safire 2 plate reader. All samples were run in duplicate or triplicate and assays were repeated at least once. Results are expressed as fraction of growth in the absence of compound and the mean and standard deviation are plotted. For the mold A. terreus, inoculum was 10^4 cells per ml and plates were incubated at 35° C. for 48 hours in the dark. Plates were then visually scored as specified by CLSI document M38-A2 to determine the MIC50 and MIC80."}, "[2]": {"system": "S. cerevisiae strains with graded levels of Gwt1 expression", "assay": "Antifungal susceptibility testing of strains with graded GWT1 copy number", "type": "cell-based", "from_the_text": "(A) Anti-fungal susceptibility testing of S. cerevisiae strains with graded levels of Gwt1 expression treated with gepinacin. Wild type diploids (Wt) or diploids with one copy of GWT1 deleted (gwt1/GWT1) were transformed with low copy (CEN) plasmids encoding GWT1 or GFP (as a control). (B) Schematic of Gwt1 protein function in cells. Glucosamine (shown as a black circle) phosphatidyl inositol (GlcN-PI) is acylated (orange zigzag) by Gwt1 to become GlcN-(acyl)PI.\nAnti-fungal susceptibility testing of wild type diploids (Wt) or diploids with one copy of GWT1 deleted (gwt1Δ/GWT1) transformed with high copy (2 micron) plasmids containing GWT1 or GFP (as a control). The strains were treated with gepinacin for 48 hours and the growth was monitored by measuring the optical density at 600 nm (OD600). The results are expressed as a fraction of the OD600 measured in the absence of gepinacin.\nTo determine the mechanism responsible for the antifungal activity of the compound, the powerful genetic tools available in the model fungal organism S. cerevisiae were utilized. Both an arrayed haploid over-expression library and a pooled heterozygous deletion library were screened for enhancement or suppression of toxicity. […] With each strain expressing one open reading frame (ORF), this library covered approximately 90% of the yeast genome. […]"}, "[3]": {"system": "unfolded protein response", "assay": "Unfolded protein response GFP reporter (UPRE-GFP), flow cytometry", "type": "cell-based, S. cerevisiae", "conditions": "5 hours", "protocol": "Induction of the unfolded protein response in cells carrying a GFP reporter construct was monitored by flow cytometry after exposure to serial dilutions of the indicated compounds for 5 hrs.\nThe plasmid pRS304-4XUPRE-GFP was linearized and integrated into the TRP1 locus of S. cerevisiae (W303) to construct a reporter strain as previously described (Cox, et al. (1993) Cell 73, 1197-1206; Pollard, et al. (1998) Mol Cell 1, 171-182). Reporter cells were grown to log phase and exposed to compound at 23° C. for 5 hours before analysis. GFP reporter induction was monitored on a Guava EasyCyte Plus cytometer. The average mean channel fluorescence of duplicate samples was determined, and the experiment was performed twice with similar results."}}, "data": [{"smiles": "COc1ccc(NC(=O)COc2cccc(OCC(C)C)c2)cc1", "note": "[gepinacin]", "values": [{"measurement": "ER function monitored by induction of BIP", "setting": "BIP level in K562 cells", "value": "did not perturb ER function"}, {"measurement": "increase in median channel fluorescence (β-glucan, flow cytometry) versus control", "setting": "[1]", "value": 4.5, "unit": "fold"}, {"measurement": "β-glucan presentation on the cell surface (immunostaining)", "setting": "[1]; sub-lethal concentrations (5 μM)", "value": "dramatically increase"}, {"measurement": "Emp24-GFP localisation", "setting": "Emp24-GFP", "value": "dramatically re-localized into large, bright dotlike structures"}, {"measurement": "growth inhibition", "setting": "Aspergillus terreus", "value": "inhibited the growth"}, {"measurement": "toxicity versus GWT1 copy number", "setting": "[2]", "value": "inversely correlated with GWT1 copy number"}, {"measurement": "activation of the unfolded protein response (GFP reporter)", "setting": "[3]", "value": "massive, concentration-dependent activation"}]}]}
